IC50 data for 19 compounds are collected here from patent US20100311714A1, “1H-IMIDAZO[4,5-c]QUINOLINONE COMPOUNDS” (priority 2009, published 2010).

T1 sequence (O00329 with tags, fused parts or gaps limits assumed): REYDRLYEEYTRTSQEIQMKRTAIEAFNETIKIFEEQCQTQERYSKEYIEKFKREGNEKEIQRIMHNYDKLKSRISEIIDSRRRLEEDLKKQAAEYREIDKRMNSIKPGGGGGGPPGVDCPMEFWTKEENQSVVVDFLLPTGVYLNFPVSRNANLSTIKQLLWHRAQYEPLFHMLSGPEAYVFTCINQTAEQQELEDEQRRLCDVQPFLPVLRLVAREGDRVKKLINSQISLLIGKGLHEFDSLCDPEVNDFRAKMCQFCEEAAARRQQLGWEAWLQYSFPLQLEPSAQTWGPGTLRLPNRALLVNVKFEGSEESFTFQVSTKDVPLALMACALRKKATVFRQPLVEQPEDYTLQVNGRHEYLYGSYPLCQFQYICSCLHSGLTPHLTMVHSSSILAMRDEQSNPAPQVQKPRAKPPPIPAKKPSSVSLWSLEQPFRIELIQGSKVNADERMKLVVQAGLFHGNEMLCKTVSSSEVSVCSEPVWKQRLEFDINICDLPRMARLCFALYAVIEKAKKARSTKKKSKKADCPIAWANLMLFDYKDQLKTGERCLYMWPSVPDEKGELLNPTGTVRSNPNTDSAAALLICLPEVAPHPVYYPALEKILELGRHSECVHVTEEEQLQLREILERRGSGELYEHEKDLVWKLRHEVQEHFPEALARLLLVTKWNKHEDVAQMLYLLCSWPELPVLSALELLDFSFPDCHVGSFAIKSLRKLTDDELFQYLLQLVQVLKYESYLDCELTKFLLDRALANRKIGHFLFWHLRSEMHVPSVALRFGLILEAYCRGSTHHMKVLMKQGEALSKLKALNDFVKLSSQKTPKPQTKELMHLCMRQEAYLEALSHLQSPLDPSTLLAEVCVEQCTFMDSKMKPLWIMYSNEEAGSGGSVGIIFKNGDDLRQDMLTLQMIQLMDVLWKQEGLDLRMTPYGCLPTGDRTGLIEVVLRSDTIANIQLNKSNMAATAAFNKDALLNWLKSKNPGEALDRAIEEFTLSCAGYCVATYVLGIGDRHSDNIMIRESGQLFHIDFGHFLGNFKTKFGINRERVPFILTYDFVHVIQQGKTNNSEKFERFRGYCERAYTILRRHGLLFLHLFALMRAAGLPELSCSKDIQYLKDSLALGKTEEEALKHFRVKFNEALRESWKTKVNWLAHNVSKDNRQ

This test concerns the target T1, PI3K delta (Homo sapiens, UniProt O00329).
T1 construct: for the full-length p110-d subunit are generated and fused by overlapping PCR; His tag (C); made in house; host or cells: baculovirus BV1060; Tn5 (Trichoplusia ni) or TiniPro insect cells
The test is described as follows: PI3K delta kinase assay (Kinase-Glo luminescence). The class given is biochemical. The note with it: read-out: EPK_PI3Kdelta/IC50. The method, boiled down:
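Kinase-Glo ATP-depletion luminescence using 10 nM p85(iSH2)-linker-p110δ full-length His-tag construct from insect cells, with 1 μM ATP and 10 μg/mL phosphatidylinositol in 10 mM Tris pH 7.5, 3 mM MgCl2, 50 mM NaCl, 0.05% CHAPS, 1 mM DTT. 60 min room temperature; IC50 from 4-parameter logistic fit over 8 concentrations.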
(In general: Kinase-Glo measures the ATP left after a reaction by luminescence.)
With `CCOc1cc(-c2ccc3ncc4c(c3c2)n(-c2ccc(N3CCCC3)nc2C)c(=O)n4C)cnc1COC` [Example 25.2, 8-(5-Ethoxy-6-methoxymethyl-pyridin-3-yl)-3-methyl-1-(2-methyl-6-pyrrolidin-1-yl-pyridin-3-yl)-1,3-dihydro-imidazo[4,5-c]quinolin-2-one], the IC50 was found to be 43 nM.
Next, `Cc1nc(N2CCCC2)ccc1-n1c(=O)n(C)c2cnc3ccc(-c4cncc(C(C)(C)O)c4)cc3c21` [Example 25.3, 8-[5-(1-Hydroxy-1-methyl-ethyl)-pyridin-3-yl]-3-methyl-1-(2-methyl-6-pyrrolidin-1-yl-pyridin-3-yl)-1,3-dihydro-imidazo[4,5-c]quinolin-2-one]: less than 3 nM; `Cc1nc(N(C)CCO)ccc1-n1c(=O)n(C)c2cnc3ccc(-c4cnc(N)c(C(F)(F)F)c4)cc3c21` [Example 26.1, 8-(6-Amino-5-trifluoromethyl-pyridin-3-yl)-1-{6-[(2-hydroxy-ethyl)-methyl-amino]-2-methyl-pyridin-3-yl}-3-methyl-1,3-dihydro-imidazo[4,5-c]quinolin-2-one]: less than 3 nM; `CNc1ncc(-c2ccc3ncc4c(c3c2)n(-c2ccc(N(C)CCO)nc2C)c(=O)n4C)cn1` [Example 26.2, 1-{6-[(2-Hydroxy-ethyl)-methyl-amino]-2-methyl-pyridin-3-yl}-3-methyl-8-(2-methylamino-pyrimidin-5-yl)-1,3-dihydro-imidazo[4,5-c]quinolin-2-one]: 88 nM.
Next, `CNc1ncc(-c2ccc3ncc4c(c3c2)n(-c2ccc(N3CCC(O)C3)nc2C)c(=O)n4C)cn1` (stereo not shown) [Example 27.2, 1-[6-(3-Hydroxy-pyrrolidin-1-yl)-2-methyl-pyridin-3-yl]-3-methyl-8-(2-methylamino-pyrimidin-5-yl)-1,3-dihydro-imidazo[4,5-c]quinolin-2-one]: 55 nM; `COC1CCN(c2ccc(-n3c(=O)n(C)c4cnc5ccc(-c6cncc(C(C)(C)O)c6)cc5c43)c(C)n2)C1` (stereo not shown) [Example 28.1, 8-[5-(1-Hydroxy-1-methyl-ethyl)-pyridin-3-yl]-1-[6-(3-methoxy-pyrrolidin-1-yl)-2-methyl-pyridin-3-yl]-3-methyl-1,3-dihydro-imidazo[4,5-c]quinolin-2-one]: 59 nM.
The result for `CCNc1cc(-c2ccc3ncc4c(c3c2)n(-c2ccc(N3CC(O)C3)nc2C)c(=O)n4C)cnc1CO` [Example 29.2, 8-(5-Ethylamino-6-hydroxymethyl-pyridin-3-yl)-1-[6-(3-hydroxy-azetidin-1-yl)-2-methyl-pyridin-3-yl]-3-methyl-1,3-dihydro-imidazo[4,5-c]quinolin-2-one] reads 19 nM; that for `CNc1ncc(-c2ccc3ncc4c(c3c2)n(-c2ccc(N3CC(O)C3)nc2C)c(=O)n4C)cc1F` [Example 29.3, 8-(5-Fluoro-6-methylamino-pyridin-3-yl)-1-[6-(3-hydroxy-azetidin-1-yl)-2-methyl-pyridin-3-yl]-3-methyl-1,3-dihydro-imidazo[4,5-c]quinolin-2-one], 23 nM.
Regarding `CNc1ncc(-c2ccc3ncc4c(c3c2)n(-c2ccc(N3CC(O)C3)nc2C)c(=O)n4C)cc1C(F)(F)F` [Example 29.4, 1-[6-(3-Hydroxy-azetidin-1-yl)-2-methyl-pyridin-3-yl]-3-methyl-8-(6-methylamino-5-trifluoromethyl-pyridin-3-yl)-1,3-dihydro-imidazo[4,5-c]quinolin-2-one], the IC50 is 13 nM.
The result for `COc1cc(-c2ccc3ncc4c(c3c2)n(-c2ccc(N3CC(O)C3)nc2C)c(=O)n4C)cnc1CO` [Example 29.5, 1-[6-(3-Hydroxy-azetidin-1-yl)-2-methyl-pyridin-3-yl]-8-(6-hydroxymethyl-5-methoxy-pyridin-3-yl)-3-methyl-1,3-dihydro-imidazo[4,5-c]quinolin-2-one] reads 50 nM.
The result for `COc1ncc(-c2ccc3ncc4c(c3c2)n(-c2ccc(N3CC(O)C3)nc2C)c(=O)n4C)c(OC)n1` [Example 29.6, 8-(2,4-Dimethoxy-pyrimidin-5-yl)-1-[6-(3-hydroxy-azetidin-1-yl)-2-methyl-pyridin-3-yl]-3-methyl-1,3-dihydro-imidazo[4,5-c]quinolin-2-one] reads 10 nM; that for `CNc1ncc(-c2ccc3ncc4c(c3c2)n(-c2ccc(C(C)(C)O)nc2C)c(=O)n4C)cc1F` [Example 31.1, 8-(5-Fluoro-6-methylamino-pyridin-3-yl)-1-[6-(1-hydroxy-1-methyl-ethyl)-2-methyl-pyridin-3-yl]-3-methyl-1,3-dihydro-imidazo[4,5-c]quinolin-2-one], 3 nM.
The result for `CCOc1ccc(-c2ccc3ncc4c(c3c2)n(-c2ccc(C(C)(C)O)nc2C)c(=O)n4C)cn1` [Example 31.4, 8-(6-Ethoxy-pyridin-3-yl)-1-[6-(1-hydroxy-1-methyl-ethyl)-2-methyl-pyridin-3-yl]-3-methyl-1,3-dihydro-imidazo[4,5-c]quinolin-2-one] reads 36 nM.
For the compound `Cc1nc(C(C)(C)O)ccc1-n1c(=O)n(C)c2cnc3ccc(-c4cnc(N)c(C(F)(F)F)c4)cc3c21` [Example 31.5, 8-(6-Amino-5-trifluoromethyl-pyridin-3-yl)-1-[6-(1-hydroxy-1-methyl-ethyl)-2-methyl-pyridin-3-yl]-3-methyl-1,3-dihydro-imidazo[4,5-c]quinolin-2-one], the IC50 was less than 3 nM.
The result for `Cc1nc(C(C)(C)O)ccc1-n1c(=O)n(C)c2cnc3ccc(-c4cncc(C(C)(C)C#N)c4)cc3c21` [Example 31.6, 2-(5-{1-[6-(1-Hydroxy-1-methyl-ethyl)-2-methyl-pyridin-3-yl]-3-methyl-2-oxo-2,3-dihydro-1H-imidazo[4,5-c]quinolin-8-yl}-pyridin-3-yl)-2-methyl-propionitrile] reads 7 nM.
Consider `CCNc1ncc(-c2ccc3ncc4c(c3c2)n(-c2ccc(C(C)(C)O)nc2C)c(=O)n4C)cn1` [Example 31.7, 8-(2-Ethylamino-pyrimidin-5-yl)-1-[6-(1-hydroxy-1-methyl-ethyl)-2-methyl-pyridin-3-yl]-3-methyl-1,3-dihydro-imidazo[4,5-c]quinolin-2-one], for which the IC50 came to 27 nM.
Next, `Cc1nc(C(C)(C)O)ccc1-n1c(=O)n(C)c2cnc3ccc(-c4cncc(C5(C#N)CCC5)c4)cc3c21` [Example 31.8, 1-(5-{1-[6-(1-Hydroxy-1-methyl-ethyl)-2-methyl-pyridin-3-yl]-3-methyl-2-oxo-2,3-dihydro-1H-imidazo[4,5-c]quinolin-8-yl}-pyridin-3-yl)-cyclobutanecarbonitrile]: 7 nM; `CNc1ncc(-c2ccc3ncc4c(c3c2)n(-c2ccc(N3CC[C@H](O)C3)nc2C)c(=O)n4C)cn1` [Example 32.1, 1-[6-((S)-3-Hydroxy-pyrrolidin-1-yl)-2-methyl-pyridin-3-yl]-3-methyl-8-(2-methylamino-pyrimidin-5-yl)-1,3-dihydro-imidazo[4,5-c]quinolin-2-one]: 9 nM; `CNc1ncc(-c2ccc3ncc4c(c3c2)n(-c2ccc(N3CC[C@H](O)C3)nc2C)c(=O)n4C)cc1F` [Example 32.2, 8-(5-Fluoro-6-methylamino-pyridin-3-yl)-1-[6-((S)-3-hydroxy-pyrrolidin-1-yl)-2-methyl-pyridin-3-yl]-3-methyl-1,3-dihydro-imidazo[4,5-c]quinolin-2-one]: 36 nM.
